Source: PubChem BioAssay AID328 (DTP/NCI, 2004)
Values joined by “and” are separate entries in the source; they are usually repeats but may differ in a detail not shown here. Equal entries are not always repeated. Inconclusive results and toxic doses are left out.

Tested on: BDF1 mice, P388 leukemia ip, median survival T/C
Test: NCI In Vivo Anticancer Drug Screen. Data for tumor model P388 Leukemia (intraperitoneal) in B6D2F1 (BDF1) mice
Conditions: endpoint: median survival time, higher = longer survival
In short: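 Antitumour effect was judged in vivo: survival in drug-treated mice, normalised to that of vehicle-dosed controls, gives the reported T/C.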

[1] = dose: 10.0 mg/kg/injection, schedule: Q01DX009 (ip), vehicle: Klucel (hydroxypropylcellulose) (HPC)
[2] = dose: 20.0 mg/kg/injection, schedule: Q01DX009 (ip), vehicle: Klucel (hydroxypropylcellulose) (HPC)
[3] = dose: 50.0 mg/kg/injection, schedule: Q01DX009 (ip), vehicle: saline with Tween-80
[4] = dose: 100.0 mg/kg/injection, schedule: Q01DX009 (ip), vehicle: saline with Tween-80
[5] = dose: 200.0 mg/kg/injection, schedule: Q01DX009 (ip), vehicle: saline with Tween-80
[6] = dose: 50.0 mg/kg/injection, schedule: Q01DX005 (ip), vehicle: saline with Tween-80
[7] = dose: 100.0 mg/kg/injection, schedule: Q01DX005 (ip), vehicle: saline with Tween-80
[8] = dose: 200.0 mg/kg/injection, schedule: Q01DX005 (ip), vehicle: saline with Tween-80
[9] = dose: 100.0 mg/kg/injection, schedule: Q04DX003 (ip), vehicle: saline with Tween-80
[10] = dose: 200.0 mg/kg/injection, schedule: Q04DX003 (ip), vehicle: saline with Tween-80
[11] = dose: 400.0 mg/kg/injection, schedule: Q04DX003 (ip), vehicle: saline with Tween-80
[12] = dose: 100.0 mg/kg/injection, schedule: Q01DX009 (ip), vehicle: saline

SMILES: CC1(C)CCC23CCC4(C)C(CCC5C6(C)CCC(O)C(C)(C)C6CCC54C)C2C1OC3=O (stereo not drawn)
- T/C [1]: 105 % of control
- T/C [2]: 119 % of control
- T/C (dose: 40.0 mg/kg/injection, schedule: Q01DX009 (ip), vehicle: Klucel (hydroxypropylcellulose) (HPC)): 105 % of control

SMILES: CC(=O)O[C@]1(C(C)=O)CC[C@H]2[C@@H]3C=C(Cl)C4=CC(=O)[C@@H]5C[C@@H]5[C@]4(C)[C@H]3CC[C@@]21C
- T/C (dose: 100.0 mg/kg/injection, schedule: Q01DX009 (ip), vehicle: Klucel (hydroxypropylcellulose) (HPC)): 95 % of control
- T/C (dose: 100.0 mg/kg/injection, schedule: Q04DX003 (ip), vehicle: Klucel (hydroxypropylcellulose) (HPC)): 104 % of control
- T/C (dose: 200.0 mg/kg/injection, schedule: Q01DX009 (ip), vehicle: Klucel (hydroxypropylcellulose) (HPC)): 91 % of control
- T/C (dose: 200.0 mg/kg/injection, schedule: Q04DX003 (ip), vehicle: Klucel (hydroxypropylcellulose) (HPC)): 108 % of control
- T/C (dose: 400.0 mg/kg/injection, schedule: Q04DX003 (ip), vehicle: Klucel (hydroxypropylcellulose) (HPC)): 108 % of control

SMILES: COc1cc2nc(C)n(C)c(=O)c2cc1OC
- T/C [3]: 101 % of control
- T/C [4]: 99 % of control
- T/C [5]: 99 % of control

SMILES: O=C1/C(=C\c2ccc(Cl)cc2)SC(=S)N1c1ccccc1
- T/C (dose: 37.5 mg/kg/injection, schedule: Q01DX009 (ip), vehicle: saline with Tween-80): 88 % of control
- T/C (dose: 75.0 mg/kg/injection, schedule: Q01DX009 (ip), vehicle: saline with Tween-80): 97 % of control
- T/C (dose: 150.0 mg/kg/injection, schedule: Q01DX009 (ip), vehicle: saline with Tween-80): 108 % of control

SMILES: N=c1ccn2c(n1)OC1C(O)C(CO)OC12 (stereo not drawn)
- T/C (dose: 39.0 mg/kg/injection, schedule: Q01DX008 (ip), vehicle: water): 173 % of control
- T/C (dose: 65.0 mg/kg/injection, schedule: Q01DX008 (ip), vehicle: water): 99 % of control
- T/C (dose: 108.0 mg/kg/injection, schedule: Q01DX008 (ip), vehicle: water): 224 % of control
- T/C (dose: 180.0 mg/kg/injection, schedule: Q01DX008 (ip), vehicle: water): 207 % of control
- T/C (dose: 300.0 mg/kg/injection, schedule: Q01DX008 (ip), vehicle: water): 213 % of control
- T/C (dose: 500.0 mg/kg/injection, schedule: Q01DX008 (ip), vehicle: water): 225 % of control

SMILES: CC/C=N/NC(N)=S
- T/C (dose: 3.13 mg/kg/injection, schedule: Q01DX009 (ip), vehicle: saline with Tween-80): 94 % of control
- T/C (dose: 6.25 mg/kg/injection, schedule: Q01DX009 (ip), vehicle: saline with Tween-80): 94 % of control
- T/C (dose: 12.5 mg/kg/injection, schedule: Q01DX009 (ip), vehicle: saline with Tween-80): 94 % of control

SMILES: CCNC(=O)OCc1cnc(C)c(OC(=O)NCC)c1COC(=O)NCC
- T/C (dose: 25.0 mg/kg/injection, schedule: Q01DX005 (ip), vehicle: saline with Tween-80): 98 % of control
- T/C [6]: 110 % of control
- T/C [7]: 100 % of control
- T/C [8]: 101 % of control

SMILES: COCCCNC1=C(C#N)C(=O)NC2(CCCC2)S1
- T/C [3]: 90 % of control
- T/C [4]: 90 % of control
- T/C [5]: 104 % of control

SMILES: CC(O)C(O)C(N)CC=O (stereo not drawn)
- T/C (dose: 1.25 mg/kg/injection, schedule: Q01DX001 (ip), vehicle: saline): 100 % of control and 110 % of control
- T/C (dose: 2.5 mg/kg/injection, schedule: Q01DX001 (ip), vehicle: saline): 100 % of control and 110 % of control
- T/C (dose: 5.0 mg/kg/injection, schedule: Q01DX001 (ip), vehicle: saline): 100 % of control and 110 % of control
- T/C (dose: 10.0 mg/kg/injection, schedule: Q01DX001 (ip), vehicle: saline): 100 % of control and 105 % of control

SMILES: CCOC(=O)C(Br)C(Br)C(=O)OCC (stereo not drawn)
- T/C [3]: 89 % of control
- T/C [4]: 104 % of control

SMILES: CCOCc1c(COc2ccc(OC)cc2)n(CC#CCOc2ccc(OC)cc2)c2ccc(Br)cc12
- T/C [3]: 101 % of control
- T/C [4]: 93 % of control
- T/C [5]: 98 % of control

SMILES: O=[N+]([O-])c1ccc2nc3c(nc2c1)-c1cccc2cccc-3c12
- T/C [9]: 91 % of control
- T/C [10]: 100 % of control
- T/C [11]: 91 % of control

SMILES: CCCCN1CCCC(O)C1 (stereo not drawn)
- T/C (dose: 50.0 mg/kg/injection, schedule: Q01DX009 (ip), vehicle: saline): 100 % of control
- T/C (dose: 50.0 mg/kg/injection, schedule: Q04DX003 (ip), vehicle: saline with Tween-80): 105 % of control
- T/C [12]: 100 % of control
- T/C [9]: 110 % of control
- T/C [10]: 100 % of control

SMILES: CCSC(CC(C)=O)c1ccc(Cl)c(Cl)c1 (stereo not drawn)
- T/C [3]: 104 % of control
- T/C [4]: 107 % of control
- T/C [5]: 118 % of control

SMILES: C=CCN(CC=C)P(=O)(N1CC1C)N1CC1C (stereo not drawn)
- T/C (dose: 0.2 mg/kg/injection, schedule: Q01DX009 (ip), vehicle: saline): 101 % of control
- T/C (dose: 0.4 mg/kg/injection, schedule: Q01DX009 (ip), vehicle: saline): 106 % of control

SMILES: CCOCCc1ccccn1
- T/C [12]: 100 % of control
- T/C (dose: 200.0 mg/kg/injection, schedule: Q01DX009 (ip), vehicle: saline): 104 % of control
- T/C (dose: 400.0 mg/kg/injection, schedule: Q01DX009 (ip), vehicle: saline): 122 % of control

SMILES: CN=C(N)c1ccc(N=C(N)c2ccc(C(N)=Nc3ccc(C(N)=NC)cc3)cc2)cc1
- T/C (dose: 13.2 mg/kg/injection, schedule: Q01DX009 (ip), vehicle: saline): 150 % of control and 172 % of control
- T/C (dose: 20.0 mg/kg/injection, schedule: Q01DX009 (ip), vehicle: saline): 240 % of control and 218 % of control
- T/C (dose: 30.0 mg/kg/injection, schedule: Q01DX009 (ip), vehicle: saline): 268 % of control and 218 % of control

SMILES: O=c1[nH]c2ccc(I)cc2c(=O)o1
- T/C [9]: 109 % of control
- T/C [10]: 104 % of control
- T/C [11]: 109 % of control

SMILES: NC(=O)c1c(Cl)nc(-c2cccc([N+](=O)[O-])c2)c([N+](=O)[O-])c1C(F)(F)F
- T/C [6]: 87 % of control
- T/C [7]: 115 % of control
- T/C [8]: 112 % of control

SMILES: O=C(/C=C/c1ccc(OCc2ccccc2)cc1)c1ccccc1Cl
- T/C [3]: 96 % of control
- T/C [4]: 96 % of control

SMILES: O=C1C(N2CCN(CCO)CC2)=C(N2CC2)C(=O)C(N2CCN(CCO)CC2)=C1N1CC1
- T/C (dose: 0.25 mg/kg/injection, schedule: Q01DX009 (ip), vehicle: saline): 241 % of control
- T/C (dose: 0.5 mg/kg/injection, schedule: Q01DX009 (ip), vehicle: saline): 241 % of control and 249 % of control
- T/C (dose: 1.0 mg/kg/injection, schedule: Q01DX009 (ip), vehicle: saline): 243 % of control
- T/C (dose: 2.0 mg/kg/injection, schedule: Q01DX009 (ip), vehicle: saline): 116 % of control

SMILES: COc1ccc2c(ccc[n+]2C)c1
- T/C (dose: 7.2 mg/kg/injection, schedule: Q01DX009 (ip), vehicle: saline): 104 % of control
- T/C (dose: 9.37 mg/kg/injection, schedule: Q04DX003 (ip), vehicle: saline): 91 % of control
- T/C (dose: 10.0 mg/kg/injection, schedule: Q01DX009 (ip), vehicle: saline): 104 % of control
- T/C (dose: 18.75 mg/kg/injection, schedule: Q04DX003 (ip), vehicle: saline): 91 % of control
- T/C (dose: 35.0 mg/kg/injection, schedule: Q04DX003 (ip), vehicle: saline): 122 % of control
- T/C (dose: 36.7 mg/kg/injection, schedule: Q04DX003 (ip), vehicle: saline): 110 % of control
- T/C (dose: 37.5 mg/kg/injection, schedule: Q01DX009 (ip), vehicle: saline): 150 % of control and 155 % of control
- T/C (dose: 37.5 mg/kg/injection, schedule: Q04DX003 (ip), vehicle: saline): 104 % of control
- T/C (dose: 55.0 mg/kg/injection, schedule: Q04DX003 (ip), vehicle: saline): 154 % of control

SMILES: O=[N+]([O-])c1cc([N+](=O)[O-])c(Br)cc1Cl
- T/C (dose: 5.0 mg/kg/injection, schedule: Q01DX009 (ip), vehicle: Klucel (hydroxypropylcellulose) (HPC)): 101 % of control
- T/C [1]: 110 % of control
- T/C [2]: 112 % of control

SMILES: COc1ccc(C2(C#N)CC2)cc1
- T/C [4]: 95 % of control
- T/C [9]: 91 % of control
- T/C [5]: 100 % of control
- T/C [10]: 100 % of control
- T/C (dose: 400.0 mg/kg/injection, schedule: Q01DX009 (ip), vehicle: saline with Tween-80): 104 % of control
- T/C [11]: 108 % of control
